Where only a bound is given, the exact number is not on record here.

The first experiment concerns HEK293-STF3A cells. The experiment can be described thus: STF3A assay (luciferase reporter). In kind it is cell-based, Human. The following applies: Homo sapiens, 24 h, 1 day of treatment. An outline of the steps:
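HEK293 cells carrying the STF reporter and expressing Wnt3A, seeded 2×10^4 per well overnight, then treated 1 day with compound at final 50 μM to 1.5 nM. Luciferase activity read by luminescence after Steady-Glo reagent, 10 min at room temperature.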
On the technique in general: In a reporter assay the amount or activity of a reporter protein is the signal.
Usually IC50 stands for the midpoint of a concentration-inhibition curve. A higher IC50 goes with a need for much substance. With `Cc1cncc(-c2ccc(NC(=O)CCC(=O)N3CCCn4nc(C)cc43)cn2)c1` [Compound 110, N-(5′-methyl-2,3′-bipyridin-5-yl)-4-(2-methyl-6,7-dihydropyrazolo[1,5-a]pyrimidin-4(5H)-yl)-4-oxobutanamide], the IC50 was below 100 nM.

Regarding `Cc1cc2n(n1)CCCN2C(=O)CCC(=O)Nc1ccc(-c2cncnc2)cn1` [Compound 153, 4-(2-methyl-6,7-dihydropyrazolo[1,5-a]pyrimidin-4(5H)-yl)-4-oxo-N-(5-(pyrimidin-5-yl)pyridin-2-yl)butanamide], the concentration for half-maximal inhibition (IC50) is below 100 nM.

Regarding `Cc1cc2n(n1)CCCN2C(=O)CCC(=O)Nc1ccc(-c2cncnc2)nc1` [Compound 154, 4-(2-methyl-6,7-dihydropyrazolo[1,5-a]pyrimidin-4(5H)-yl)-4-oxo-N-(6-(pyrimidin-5-yl)pyridin-3-yl)butanamide], the IC50 is below 1000 nM.

Turning to `Cc1cc2n(n1)CCCN2C(=O)CC(C)C(=O)Nc1ccc(-c2cccnc2)nn1` (centres unmarked) [Compound 155], the IC50 is below 100 nM.

`Cc1cc2n(n1)CCCN2C(=O)CCC(=O)Nc1cnc(-c2ccccc2)c(F)c1` [Compound 156, N-(5-fluoro-6-phenylpyridin-3-yl)-4-(2-methyl-6,7-dihydropyrazolo[1,5-a]pyrimidin-4(5H)-yl)-4-oxobutanamide] gave an IC50 below 100 nM.

The compound `Cc1cncc(-c2ccc(NC(=O)CCC(=O)N3CC(C)Cn4nc(C)cc43)nc2)n1` (centres unmarked) [Compound 157, 4-(2,6-dimethyl-6,7-dihydropyrazolo[1,5-a]pyrimidin-4(5H)-yl)-N-(5-(6-methylpyrazin-2-yl)pyridin-2-yl)-4-oxobutanamide] displayed an IC50 below 100 nM.

With `Cc1cncc(-c2ncc(NC(=O)CCC(=O)N3CCCn4nc(C)cc43)cc2F)c1` [Compound 158, N-(3-fluoro-5′-methyl-[2,3′-bipyridin]-5-yl)-4-(2-methyl-6,7-dihydropyrazolo[1,5-a]pyrimidin-4(5H)-yl)-4-oxobutanamide], the IC50 was below 100 nM.

The compound `Cc1cc2n(n1)CCCN2C(=O)CC(C)C(=O)Nc1cc(-c2cccc(Cl)c2)no1` (centres unmarked) [Compound 159, N-(3-(3-chlorophenyl)isoxazol-5-yl)-2-methyl-4-(2-methyl-6,7-dihydropyrazolo[1,5-a]pyrimidin-4(5H)-yl)-4-oxobutanamide] had an IC50 below 5000 nM.

Take `Cc1cc2n(n1)CC(C)CN2C(=O)CCC(=O)Nc1ccc(-c2cncc(F)c2)nc1` (centres unmarked) [Compound 162, 4-(2,6-dimethyl-6,7-dihydropyrazolo[1,5-a]pyrimidin-4(5H)-yl)-N-(5′-fluoro-[2,3′-bipyridin]-5-yl)-4-oxobutanamide]: the half-maximal inhibitory concentration (IC50) was below 100 nM.

Compound `Cc1cc2n(n1)CC(C)CN2C(=O)CCC(=O)Nc1ccc(-c2cncc(F)c2)cn1` (centres unmarked) [Compound 163, 4-(2,6-dimethyl-6,7-dihydropyrazolo[1,5-a]pyrimidin-4(5H)-yl)-N-(5′-fluoro-[3,3′-bipyridin]-6-yl)-4-oxobutanamide] had an IC50 below 100 nM.

`Cc1cc2n(n1)CC(C)CN2C(=O)CCC(=O)Nc1ccc(-c2ccc(F)cn2)cn1` (centres unmarked) [Compound 164, 4-(2,6-dimethyl-6,7-dihydropyrazolo[1,5-a]pyrimidin-4(5H)-yl)-N-(5-fluoro-[2,3′-bipyridin]-6′-yl)-4-oxobutanamide] registered an IC50 below 1000 nM.

With `Cc1cc2n(n1)CC(C)CN2C(=O)CCC(=O)Nc1cc(F)c(-c2cccnc2)cn1` (centres unmarked) [Compound 165, 4-(2,6-dimethyl-6,7-dihydropyrazolo[1,5-a]pyrimidin-4(5H)-yl)-N-(4-fluoro-[3,3′-bipyridin]-6-yl)-4-oxobutanamide], the IC50 was below 100 nM.

Consider `Cc1cc2n(n1)CCCN2C(=O)CCC(=O)Nc1ccc(-c2cnccn2)nc1` [Compound 166, 4-(2-methyl-6,7-dihydropyrazolo[1,5-a]pyrimidin-4(5H)-yl)-4-oxo-N-(6-(pyrazin-2-yl)pyridin-3-yl)butanamide], for which the IC50 is below 1000 nM.

`Cc1cc2n(n1)CC(C)CN2C(=O)CCC(=O)Nc1ccc(-c2cncc(F)c2)nn1` (centres unmarked) [Compound 167, 4-(2,6-dimethyl-6,7-dihydropyrazolo[1,5-a]pyrimidin-4(5H)-yl)-N-(6-(5-fluoropyridin-3-yl)pyridazin-3-yl)-4-oxobutanamide] yielded an IC50 below 100 nM.

Compound `Cc1cncc(-c2ncc(NC(=O)CCC(=O)N3CCCn4nc(C)cc43)cc2C)c1` [Compound 168, N-(3,5′-dimethyl-[2,3′-bipyridin]-5-yl)-4-(2-methyl-6,7-dihydropyrazolo[1,5-a]pyrimidin-4(5H)-yl)-4-oxobutanamide] came in with an IC50 below 1000 nM.

`Cc1cc2n(n1)C[C@@H](C)CN2C(=O)CCC(=O)Nc1ccc(-c2cccnc2)cn1` [Compound 169, N-(3,3′-bipyridin-6-yl)-4-(2,6-dimethyl-6,7-dihydropyrazolo[1,5-a]pyrimidin-4(5H)-yl)-4-oxobutanamide]: the concentration for half-maximal inhibition (IC50) was below 100 nM.

In turn, `Cc1cc2n(n1)C[C@H](C)CN2C(=O)CCC(=O)Nc1ccc(-c2cccnc2)cn1` [Compound 170, N-(3,3′-bipyridin-6-yl)-4-(2,6-dimethyl-6,7-dihydropyrazolo[1,5-a]pyrimidin-4(5H)-yl)-4-oxobutanamide] yielded a concentration for half-maximal inhibition (IC50) below 100 nM.

In turn, `Cc1cc2n(n1)CC(C)CN2C(=O)CCC(=O)Nc1ccc(-c2ccccn2)cn1` (centres unmarked) [Compound 171, N-([2,3′-bipyridin]-6′-yl)-4-(2,6-dimethyl-6,7-dihydropyrazolo[1,5-a]pyrimidin-4(5H)-yl)-4-oxobutanamide] came in with an IC50 below 100 nM.

The next experiment has as its system MMTV-Wnt1 tumor. Nature of the experiment: MMTV-Wnt1 mouse model. The experiment is classed as in vivo. The following applies: treated mice, FIG. 2 and FIG. 3. The protocol: 8-10 weeks old Female BALBc mice were anesthetised with 150 mg/kg Ketamine+75 mg/kg Xylazine. Under aseptic conditions, skin near the 4th mammary fat pad was incised. Mammary fat pad was tweaked with forceps and tumor fragment ˜2 mm^3 was implanted. The incision was closed using a tissue adhesive. Animals were randomised into groups of eight and treated daily with the test compounds for 14 days. Tumors were measured in two dimensions using calipers, and volume was calculated using the formula: Tumor Volume (mm^3)=[…]. Maximum tumor volume limit was 2000 mm^3.
On to `Cc1cncc(-c2ccc(NC(=O)CCC(=O)N3CCCn4nc(C)cc43)cn2)c1` [Compound 110, N-(5′-methyl-2,3′-bipyridin-5-yl)-4-(2-methyl-6,7-dihydropyrazolo[1,5-a]pyrimidin-4(5H)-yl)-4-oxobutanamide], for which the tumor growth result is given as “decreased tumor growth in all the treated mice”.

For another experiment, the system named is mammalian PORCN. The experiment can be described thus: PORCN-null HT1080 cells transfected with mammalian PORCN, WNT3A, STF reporter. The experiment is classed as cell-based. The following applies: luciferase, FIG. 1. The protocol:
PORCN-null HT1080 cells were transfected with mammalian or Xenopus PORCN expression plasmids, along with WNT3A, STF reporter and mCherry as transfection control. 6 hours after transfection, cells were treated with the compounds or DMSO as indicated, and the following day assayed for luciferase. Xenopus PORCN was resistant to the inhibitory effects of compounds.
Take `Cc1cncc(-c2ccc(NC(=O)CCC(=O)N3CCCn4nc(C)cc43)cn2)c1` [Compound 110, N-(5′-methyl-2,3′-bipyridin-5-yl)-4-(2-methyl-6,7-dihydropyrazolo[1,5-a]pyrimidin-4(5H)-yl)-4-oxobutanamide]: the “inhibition of the activity of mammalian porcupine” value is reported as “inhibit the activity of mammalian porcupine”.

(Values after US10189842B2 (Agency for Science, Technology and Research, priority 2013, dated 2019).)
